Experimental data published in patent publication US12227520B2 (priority 2019, dated 2025).
Read-outs that look alike come from different tables or passages of the source.

Tests used:
HIV-1 (IIIB) = assay: Antiviral assay in MT-4 cells (HIV MT-4 antiviral assay); format: cell-based; conditions: Human immunodeficiency virus 1, IIIB, MT4, 120 h, HIV-1 (IIIB) in MT-4 cells, 5 days incubation
Protocol: Compounds were tested in a high-throughput 384-well assay format for their ability to inhibit the replication of HIV-1 (IIIB) in MT-4 cells. Compounds were serially diluted (1:3) in DMSO on 384-well polypropylene plates and further diluted 200-fold into complete RPMI media (10% FBS, 1% P/S) using the Biotek Micro Flow and Labcyte ECHO acoustic dispenser. Each plate contained up to 8 test compounds, with negative (No Drug Control) and 5 μM AZT positive controls. MT-4 cells were pre-infected with 10 μL of either RPMI (mock-infected) or a fresh 1:250 dilution of HIV-1 IIIB concentrated virus stock. Infected and uninfected MT-4 cells were further diluted in complete RPMI media and added to each plate using a Micro Flow dispenser. After 5 days incubation in a humidified and temperature controlled incubator (37° C.), Cell Titer Glo (Promega) was added to the assay plates and chemiluminescence read using an Envision plate-reader.

[1] = Cytotoxicity assay in MT-4 cells; format: cell-based, human; conditions: human, uninfected MT-4 cells, 5 days incubation; read-out: CC50
Protocol: Each plate contained up to 8 test compounds, with negative (No Drug Control) and 5 μM AZT positive controls. MT-4 cells were pre-infected with 10 μL of either RPMI (mock-infected) or a fresh 1:250 dilution of HIV-1 IIIB concentrated virus stock. Infected and uninfected MT-4 cells were further diluted in complete RPMI media and added to each plate using a Micro Flow dispenser. After 5 days incubation in a humidified and temperature controlled incubator (37° C.), Cell Titer Glo (Promega) was added to the assay plates and chemiluminescence read using an Envision plate-reader. […] Assays were performed as above except uninfected MT-4 cells were added to each well containing test compound. In addition, 10 μM puromycin was added to the last column of each assay plate to assess a base level of cytotoxicity.

pLai RLuc reporter virus = assay: microbe, parasite or virus in culture; format: cell-based, HIV; conditions: Human immunodeficiency virus 1, 72 h
Protocol: To quantify the amount of protein binding to human serum, compounds were serially diluted (1:3) in DMSO and acoustically transferred onto 384-well assay plates via a Labcyte ECHO robot. Each plate contained up to 8 test compounds, including negative and positive controls, (DMSO, 5 μM AZT respectively). Assay plates were prepared in duplicate, and tested in either CCM (cell culture media) or HS/CCM (human serum/cell culture media). MT-4 cells were first pre-infected with pLai RLuc reporter virus for 2 h at 37° C., then further diluted in either CCM (RPMI media, 10% FBS, 1% P/S) or HS/CCM (RPMI media, 10% FBS, 50% HS, 1% P/S), and subsequently added to each plate using a Biotek Micro Flow dispenser. After a 72-h incubation in a humidified and temperature controlled incubator (37° C.), Renilla Glo (Promega) was added to all assay plates and chemiluminescence read using an Envision plate-reader. […] To determine the amount of protein binding, EC50 fold shifts (or EC50 shifts) were calculated by dividing EC50 (HS/CCM)/EC50 (CCM).

Structure (SMILES): O=C(NCc1ccc(F)cc1F)c1cn2c(c(O)c1=O)C(=O)N1CCCCC2C1 (racemic) [Example 25, N-(2,4-difluorobenzyl)-12-hydroxy-1,11-dioxo-1,4,5,6,7,11-hexahydro-3H-2,7-methanopyrido[1,2-a][1,4]diazonine-10-carboxamide]
- EC50 (HIV-1 (IIIB); read-out: EC50): 1.7 nM
- CC50 at 5 days [1]: 12600 nM
- EC50 (pLai RLuc reporter virus; read-out: Antiviral Serum Shift RLuc 50% HS, HS/CCM (RPMI media, 10% FBS, 50% HS, 1% P/S), 72-h incubation): 1.92 nM
- EC50 (pLai RLuc reporter virus; read-out: Antiviral Serum Shift RLuc CCM, CCM (RPMI media, 10% FBS, 1% P/S), 72-h incubation): 0.191 nM

Structure (SMILES): CCC1CCCN2CC1n1cc(C(=O)NCc3ccc(F)cc3F)c(=O)c(O)c1C2=O (stereo not drawn) [Example 106, N-(2,4-difluorobenzyl)-6-ethyl-12-hydroxy-1,11-dioxo-1,4,5,6,7,11-hexahydro-3H-2,7-methanopyrido[1,2-a][1,4]diazonine-10-carboxamide]
- EC50 (HIV-1 (IIIB); read-out: EC50): 2.32 nM
- CC50 at 5 days [1]: 6840 nM

Structure (SMILES): C[C@]1(O)CCN2C[C@H](C1)n1cc(C(=O)NCc3c(F)cc(F)cc3F)c(=O)c(O)c1C2=O [Example 107-1, (5S,7S)-5,12-dihydroxy-5-methyl-1,11-dioxo-N-(2,4,6-trifluorobenzyl)-1,4,5,6,7,11-hexahydro-3H-2,7-methanopyrido[1,2-a][1,4]diazonine-10-carboxamide]
- EC50 (HIV-1 (IIIB); read-out: EC50): 15.1 nM
- CC50 at 5 days [1]: > 50000 nM

Structure (SMILES): C[C@@]1(O)CCN2C[C@H](C1)n1cc(C(=O)NCc3c(F)cc(F)cc3F)c(=O)c(O)c1C2=O [Example 107-2, (5R,7S)-5,12-dihydroxy-5-methyl-1,11-dioxo-N-(2,4,6-trifluorobenzyl)-1,4,5,6,7,11-hexahydro-3H-2,7-methanopyrido[1,2-a][1,4]diazonine-10-carboxamide]
- EC50 (HIV-1 (IIIB); read-out: EC50): 12.1 nM
- CC50 at 5 days [1]: > 50000 nM

Structure (SMILES): C[C@@]1(F)CCN2C[C@H](C1)n1cc(C(=O)NCc3c(F)cc(F)cc3F)c(=O)c(O)c1C2=O [Example 115-2, (5R,7S)-5-fluoro-12-hydroxy-5-methyl-1,11-dioxo-N-(2,4,6-trifluorobenzyl)-1,4,5,6,7,11-hexahydro-3H-2,7-methanopyrido[1,2-a][1,4]diazonine-10-carboxamide]
- EC50 (HIV-1 (IIIB); read-out: EC50): 2.58 nM
- CC50 at 5 days [1]: 28100 nM

Structure (SMILES): CC1CCN2C[C@H](C1)n1cc(C(=O)NCc3c(F)cc(F)cc3F)c(=O)c(O)c1C2=O (stereo partly drawn) [Example 124, (7S)-12-hydroxy-5-methyl-1,11-dioxo-N-(2,4,6-trifluorobenzyl)-1,4,5,6,7,11-hexahydro-3H-2,7-methanopyrido[1,2-a][1,4]diazonine-10-carboxamide]
- EC50 (HIV-1 (IIIB); read-out: EC50): 2.79 nM
- CC50 at 5 days [1]: 15400 nM

Structure (SMILES): O=C(NCc1cccc(Cl)c1F)c1cn2c(c(O)c1=O)C(=O)N1CCCC[C@H]2C1 [Example 126, (7S)—N-(3-chloro-2-fluorobenzyl)-12-hydroxy-1,11-dioxo-1,4,5,6,7,11-hexahydro-3H-2,7-methanopyrido[1,2-a][1,4]diazonine-10-carboxamide]
- EC50 (HIV-1 (IIIB)): 4.75 nM
- CC50 at 5 days [1]: 15400 nM

Structure (SMILES): C[C@@]1(F)CC[C@H]2CN(C1)C(=O)c1c(O)c(=O)c(C(=O)NCc3c(F)cc(F)cc3F)cn12 [Example 132-1, (4R,7S)-4-fluoro-12-hydroxy-4-methyl-1,11-dioxo-N-(2,4,6-trifluorobenzyl)-1,4,5,6,7,11-hexahydro-3H-2,7-methanopyrido[1,2-a][1,4]diazonine-10-carboxamide]
- EC50 (HIV-1 (IIIB); read-out: EC50): 8.83 nM
- CC50 at 5 days [1]: > 50000 nM

Structure (SMILES): C[C@]1(F)CC[C@H]2CN(C1)C(=O)c1c(O)c(=O)c(C(=O)NCc3c(F)cc(F)cc3F)cn12 [Example 132-2, (4S,7S)-4-fluoro-12-hydroxy-4-methyl-1,11-dioxo-N-(2,4,6-trifluorobenzyl)-1,4,5,6,7,11-hexahydro-3H-2,7-methanopyrido[1,2-a][1,4]diazonine-10-carboxamide]
- EC50 (HIV-1 (IIIB); read-out: EC50): 2.78 nM
- CC50 at 5 days [1]: 25700 nM

Structure (SMILES): CC1=CC[C@H]2CN(C1)C(=O)c1c(O)c(=O)c(C(=O)NCc3c(F)cc(F)cc3F)cn12 [Example 132-3, (7S)-12-hydroxy-4-methyl-1,11-dioxo-N-(2,4,6-trifluorobenzyl)-1,6,7,11-tetrahydro-3H-2,7-methanopyrido[1,2-a][1,4]diazonine-10-carboxamide]
- EC50 (HIV-1 (IIIB); read-out: EC50): 2.14 nM
- CC50 at 5 days [1]: 24100 nM

Structure (SMILES): O=C(NCc1c(F)cc(F)cc1F)c1cn2c(c(O)c1=O)C(=O)N1CCc3cc(Cl)ccc3[C@H]2C1 [Example 136-1, (13S)-10-chloro-4-hydroxy-3,5-dioxo-N-(2,4,6-trifluorobenzyl)-3,5,8,13-tetrahydro-7H-6,13-methanobenzo[g]pyrido[1,2-a][1,4]diazonine-2-carboxamide]
- EC50 (HIV-1 (IIIB); read-out: EC50): 39.9 nM
- CC50 at 5 days [1]: 12400 nM

Structure (SMILES): O=C(NCc1ccc(F)c(Cl)c1F)c1cn2c(c(O)c1=O)C(=O)N1Cc3cc(F)c(F)cc3C[C@H]2C1 [Example 139-2, (6S)—N-(3-chloro-2,4-difluorobenzyl)-9,10-difluoro-1-hydroxy-2,14-dioxo-2,7,12,14-tetrahydro-6H-6,13-methanobenzo[f]pyrido[1,2-a][1,4]diazonine-3-carboxamide]
- EC50 (HIV-1 (IIIB); read-out: EC50): 9.11 nM
- CC50 at 5 days [1]: > 50000 nM

Structure (SMILES): O=C(NCc1ccc(F)cc1F)c1cn2c(c(O)c1=O)C(=O)N1CCc3cc(Cl)ccc3[C@H]2C1 [Example 140-1, (13S)-10-chloro-N-(2,4-difluorobenzyl)-4-hydroxy-3,5-dioxo-3,5,8,13-tetrahydro-7H-6,13-methanobenzo[g]pyrido[1,2-a][1,4]diazonine-2-carboxamide]
- EC50 (HIV-1 (IIIB); read-out: EC50): 24.1 nM
- CC50 at 5 days [1]: 14600 nM

Structure (SMILES): O=C(NCc1cccc(Cl)c1F)c1cn2c(c(O)c1=O)C(=O)N1Cc3cc(F)c(F)cc3C[C@H]2C1 [Example 143-2, (6S)—N-(3-chloro-2-fluorobenzyl)-9,10-difluoro-1-hydroxy-2,14-dioxo-2,7,12,14-tetrahydro-6H-6,13-methanobenzo[f]pyrido[1,2-a][1,4]diazonine-3-carboxamide]
- EC50 (HIV-1 (IIIB); read-out: EC50): 12.8 nM
- CC50 at 5 days [1]: > 50000 nM

Structure (SMILES): O=C(NCc1ccc(F)cc1Cl)c1cn2c(c(O)c1=O)C(=O)N1CCCC[C@H]2C1 [Example 152, (7S)—N-(2-chloro-4-fluoro-benzyl)-12-hydroxy-1,11-dioxo-1,4,5,6,7,11-hexahydro-3H-2,7-methanopyrido[1,2-a][1,4]diazonine-10-carboxamide]
- EC50 (HIV-1 (IIIB); read-out: EC50): 4.05 nM
- CC50 at 5 days [1]: 12000 nM

Structure (SMILES): O=C(NCc1ccc(Cl)cc1Cl)c1cn2c(c(O)c1=O)C(=O)N1CCCC[C@H]2C1 [Example 153, (7S)—N-(2,4-dichlorobenzyl)-12-hydroxy-1,11-dioxo-1,4,5,6,7,11-hexahydro-3H-2,7-methanopyrido[1,2-a][1,4]diazonine-10-carboxamide]
- EC50 (HIV-1 (IIIB); read-out: EC50): 29.8 nM
- CC50 at 5 days [1]: 5610 nM

Structure (SMILES): O=C(NCc1c(F)cc(F)cc1F)c1cn2c(c(O)c1=O)C(=O)N1CCSC[C@@H]2C1 [Example 155-1, (7S)-12-hydroxy-1,11-dioxo-N-(2,4,6-trifluorobenzyl)-1,3,4,6,7,11-hexahydro-2,7-methanopyrido[1,2-d][1,4,7]thiadiazonine-10-carboxamide]
- EC50 (HIV-1 (IIIB); read-out: EC50): 3.05 nM
- CC50 at 5 days [1]: 39500 nM

Structure (SMILES): O=C(NCc1c(F)cc(F)cc1F)c1cn2c(c(O)c1=O)C(=O)N1CCSC[C@H]2C1 [Example 155-2, (7R)-12-hydroxy-1,11-dioxo-N-(2,4,6-trifluorobenzyl)-1,3,4,6,7,11-hexahydro-2,7-methanopyrido[1,2-d][1,4,7]thiadiazonine-10-carboxamide]
- EC50 (HIV-1 (IIIB); read-out: EC50): 4.43 nM
- CC50 at 5 days [1]: > 41300 nM

Structure (SMILES): O=C(NCc1ccccc1)c1cn2c(c(O)c1=O)C(=O)N1CCCC[C@H]2C1 [Example 167, (7S)—N-benzyl-12-hydroxy-1,11-dioxo-1,4,5,6,7,11-hexahydro-3H-2,7-methanopyrido[1,2-a][1,4]diazonine-10-carboxamide]
- EC50 (HIV-1 (IIIB); read-out: EC50): 3.23 nM
- CC50 at 5 days [1]: 18700 nM

Structure (SMILES): C[C@H]1CCCN2C[C@H]1n1cc(C(=O)NCc3c(F)cc(F)cc3F)c(=O)c(O)c1C2=O [Example 170, (6S,7S)-12-hydroxy-6-methyl-1,11-dioxo-N-(2,4,6-trifluorobenzyl)-1,4,5,6,7,11-hexahydro-3H-2,7-methanopyrido[1,2-a][1,4]diazonine-10-carboxamide]
- EC50 (HIV-1 (IIIB); read-out: EC50): 1.21 nM
- CC50 at 5 days [1]: 9860 nM
